pIC50, pKd: −log10 of the molar value. Active and inactive are the calls of the source. The rule behind the calls is not given here.
Assays:
Aurora kinase B = Aurora kinase B (Homo sapiens, UniProt Q96GD4); experiment: Inhibition of Aurora B (unknown origin) assessed as residual enzyme activity at 50 uM by [33P]-ATP filter binding kinase assay relative to control
[1] = target: NUAK family SNF1-like kinase 1 (Homo sapiens) (UniProt O60285); experiment: Inhibition of NUAK1 (unknown origin) by assessed as residual enzyme activity at 1 uM by [33P]-ATP filter binding kinase assay relative to control
[2] = target: Receptor-interacting serine/threonine-protein kinase 2 (Homo sapiens, UniProt O43353); experiment: Inhibition of RIPK2 (unknown origin) assessed as residual enzyme activity at 1 uM by [33P]-ATP filter binding kinase assay relative to control
[3] = target: Myosin light chain kinase family member 4 (Homo sapiens) (UniProt Q86YV6); experiment: Binding affinity to wild-type human partial length MYLK4 (V79 to S380 residues) expressed in bacterial expression system assessed as residual binding level at 10 uM by active-site directed competition binding assay based Kinomescan method relative to control
[4] = target: Serine/threonine-protein kinase 17A (Homo sapiens) (UniProt Q9UEE5); experiment: Binding affinity to wild-type human partial length DRAK1 (R32 to E363 residues) expressed in bacterial expression system assessed as residual binding level at 10 uM by active-site directed competition binding assay based Kinomescan method relative to control
[5] = target: Serine/threonine-protein kinase pim-1 (Homo sapiens, UniProt P11309); experiment: Binding affinity to wild-type human partial length PIM1 (A15 to K313 residues) expressed in bacterial expression system assessed as residual binding level at 10 uM by active-site directed competition binding assay based Kinomescan method relative to control
[6] = target: Dual specificity tyrosine-phosphorylation-regulated kinase 1A (Homo sapiens, UniProt Q13627); experiment: Binding affinity to wild-type human partial length DYRK1A (H129 to S509 residues) expressed in mammalian expression system assessed as residual binding level at 10 uM by active-site directed competition binding assay based Kinomescan method relative to control
[7] = target: Mitogen-activated protein kinase 15 (Homo sapiens) (UniProt Q8TD08); experiment: Binding affinity to wild-type human partial length ERK8 (M1 to P437 residues) expressed in bacterial expression system assessed as residual binding level at 10 uM by active-site directed competition binding assay based Kinomescan method relative to control
[8] = target: Myosin light chain kinase family member 4 (Homo sapiens, UniProt Q86YV6); experiment: Binding affinity to wild-type human partial length MYLK4 (V79 to S380 residues) expressed in bacterial expression system by active-site directed competition binding assay based Kinomescan method
[9] = target: BMP-2-inducible protein kinase (Homo sapiens, UniProt Q9NSY1); experiment: Binding affinity to wild-type human partial length BIKE (S34 to N329 residues) expressed in bacterial expression system by active-site directed competition binding assay based Kinomescan method
[10] = target: Phosphatidylinositol 4-kinase beta (Homo sapiens, UniProt Q9UBF8); experiment: Binding affinity to wild-type human full length PIK4CB (M1 to M828 residues) expressed in mammalian expression system by active-site directed competition binding assay based Kinomescan method
[11] = target: Serine/threonine-protein kinase RIO1 (Homo sapiens, UniProt Q9BRS2); experiment: Binding affinity to wild-type human full length RIOK1 (M1 to K568 residues) expressed in bacterial expression system by active-site directed competition binding assay based Kinomescan method
[12] = target: Casein kinase I isoform epsilon (Homo sapiens, UniProt P49674); experiment: Binding affinity to wild-type human full length CSNK1E (M1 to K416 residues) expressed in bacterial expression system by active-site directed competition binding assay based Kinomescan method
[13] = Cytotoxicity in human MT3 cells assessed as reduction in cell viability incubated for 72 hrs by SRB assay; conditions: MT-3, 72 h
PLC-PRF-5 = experiment: Cytotoxicity in human PLC/PRF/5 cells assessed as reduction in cell viability incubated for 72 hrs by SRB assay; conditions: PLC-PRF-5, 72 h
SK-BR-3 = experiment: Cytotoxicity in human SK-BR-3 cells assessed as reduction in cell viability incubated for 72 hrs by SRB assay; conditions: SK-BR-3, 72 h
[14] = Cytotoxicity in human RD-ES cells assessed as reduction in cell viability incubated for 72 hrs by SRB assay
HepG2 = experiment: Cytotoxicity in human HepG2 cells assessed as reduction in cell viability incubated for 72 hrs by SRB assay; conditions: HepG2, 72 h
BT-20 = experiment: Cytotoxicity in human BT20 cells assessed as reduction in cell viability incubated for 72 hrs by SRB assay; conditions: BT-20, 72 h
MDA-MB-436 = experiment: Cytotoxicity in human MDA-MB-436 cells assessed as reduction in cell viability incubated for 72 hrs by SRB assay; conditions: MDA-MB-436, 72 h
PBMC = experiment: Cytotoxicity in human PBMC assessed as reduction in cell viability incubated for 72 hrs by SRB assay; assay type: cell-based
[15] = target: 3',5'-cyclic-AMP phosphodiesterase 4D (Homo sapiens) (UniProt Q08499); experiment: Inhibition of human recombinant phosphodiesterase type 4D2 using [3H]cAMP and cAMP incubated for 20 mins by scintillation counting method
[16] = target: cGMP-specific 3',5'-cyclic phosphodiesterase (Homo sapiens, UniProt O76074); experiment: Inhibition of human recombinant phosphodiesterase type 5 using [3H]cGMP and cGMP incubated for 60 mins by scintillation counting method; conditions: 1 h
[17] = Toxicity in zebrafish embryos assessed as survival at 1396 uM after 72 hrs (reference value: 95%); parameters: species or system Danio rerio; conditions: in vivo
[18] = Toxicity in zebrafish embryos assessed as induction of scoliosis by measuring unaffected embryos level at 0.1 uM after 72 hrs (reference value: 100%); parameters: species or system Danio rerio; conditions: in vivo
[19] = Toxicity in zebrafish embryos assessed as induction of necrosis by measuring unaffected embryos level at 0.1 uM after 72 hrs (reference value: 100%); parameters: species or system Danio rerio; conditions: in vivo
[20] = Intrinsic clearance in human liver microsomes at 3 uM measured up to 50 mins by LC-MS analysis; assay type: ADME, Microsome; conditions: read-out: CLH
[21] = Stability in mouse liver microsomes supplemented with UDP-glucuronic acid assessed as parent compound remaining level at 5 uM incubated for 1 hr by LC-MS analysis; assay type: ADME, Microsome; conditions: read-out: Stability
Hs-578T = experiment: cells; conditions: Homo sapiens, 72 h

Structure (SMILES): COc1cc2c(-c3cnc(-c4ccc[nH]4)o3)c[nH]c2cc1Br
- Activity (Aurora kinase B): 6%
- Activity [1]: 46%
- Activity [2]: 41%
- Activity [3]: 0.25%
- Activity [4]: 2.9%
- Activity [5]: 9.5%
- Activity [6]: 75%
- Activity [7]: 67%
- pKd [8]: 6.37
- pKd [9]: 5.96
- pKd [10]: 5.54
- pKd [11]: 5.54
- pKd [12]: 5.48
- pIC50 [13]: 6.03
- pIC50 (PLC-PRF-5): 5.82
- pIC50 (SK-BR-3): 5.82
- pIC50 [14]: 5.60
- pIC50 (HepG2): 5.52
- pIC50 (BT-20): < 4.52
- pIC50 (MDA-MB-436): < 4.52
- Activity (PBMC): Non-Toxic
- inhibition [15]: Active
- inhibition (INH) [16]: Active
- survival at 72 h, 1396 µM [17]: 0%
- Activity [18]: 95%
- Activity [19]: 100%
- microsomal CLint at 3 µM [20]: 14 µL/min/mg
- remaining at 1 h, 5 µM [21]: 100%
- pIC50 (Hs-578T): 5.28
